Tests used:
Kv2.1 = biological target: T1, Kv2.1 (Rattus norvegicus, UniProt P15387); assay: Two-electrode voltage clamp (TEVC) of Xenopus oocytes expressing Kv2.1, bath-applied compound; type: cell-based; conditions: for effect on Kv2.1 currents: 1 mM, bath applied
T1 construct: expressed in transfected cells; host or cells: Xenopus laevis oocytes (cRNA injection, pGA1 vector)
Excerpt: The ion channel subunit genes are in expression vectors that facilitate in vitro transcription of channel cRNA using the Ambion mMessage mMachine in vitro transcription kit. cDNA constructs are column-purified, linearized with the appropriate restriction enzyme that cuts a single site following the polyA tail, then purified by precipitation and transcribed in vitro using a promoter, such as T7, T3 and SP6. Transcribed cRNA is purified by precipitation and resuspended in RNAse-free water ready for injection. Each transcription can provide enough cRNA for several months of experiments.
Stage V-VI Xenopus oocytes are separated into small groups using forceps, defolliculated by agitation in Ca^2+-free Ringer solution containing collagenase for one hour, washed, then stored at 15° C. in full Ringers solution before injection. cRNA sufficient to give 1-10 μA of current at physiological voltages for each channel type is injected into Xenopus oocytes (selected by appearance for overall health and uniformity of color) using a Sutter manual injector (typically 0.1-5 ng cRNA in a volume of 25-50 nl). The oocytes are then stored for 1-3 days at 15° C. before TEVC recording. Beta subunit cRNA is co-injected as appropriate, typically 2 ng per oocyte.
Whole cell oocyte experiments are performed using a Warner OC-725C amplifier and pClamp9 software with oocytes bathed in a small-volume Warner oocyte bath and viewed with a Fisher dissection microscope. Bath solution for whole cell oocyte recordings, e.g., for potassium channel analysis, is generally (in mM): 96 NaCl, 4 KCl, 1 MgCl2, 0.3 CaCl2, 10 HEPES (Ph 7.4); whole-cell oocyte TEVC pipettes are filled with 3 M KCl. Oocyte patches are studies using an Axon Instruments small-volume bath, viewed with an Olympus IX50 inverted microscope, and recordings made using an Axon Multiclamp 700 A Amplifier and pCLAMP9 software (Axon Instruments). Extracellular solution, e.g., for potassium channel analysis, is generally (in mM): 135 NaCl, 5 KCl, 1.2 MgCl2, 5 HEPES, 2.5 CaCl2, 10 D-glucose (Ph 7.4). Intracellular solution, e.g., for potassium channel analysis, is generally (in mM): 10 NaCl, 117 KCl, 2 MgCl2, 11 HEPES, 11 EGTA, ICaCl2 (Ph 7.2). Patch pipettes are approximately 3-5 MΩ resistance when filled with recording solution.
Quantitative aspects of ion action on ion channels are compared using standard pulse protocols. Pulse times and voltages will vary according to which currents are being studied. […] Drug inhibition constants are calculated after generating a dose response curve by fitting with a logistic dose-response function (see equation (i) below). Typically, 5-20 cells per group are recorded from for heterologous expression experiments. Values are to be stated as mean±SEM with statistical significance set at p<0.05 (unpaired students t-test, ANOVA or the Mann-Whitney Rank Sum Test as appropriate).
Injected oocytes, bathed in bath solution containing 4 mM KCl, unless otherwise stated, are impaled with current and voltage electrodes and clamped at −80 mV holding potential using a Warner OC-725C amplifier. […] Drug concentrations are chosen to ensure inhibition values between 0 and 90-100% with at least 3 values within the linear portion of the curve so that the inhibition constant (Ki) can be calculated accurately by fitting with a logistic dose-response function (formula (i)) using the Origin 6.1 graph package.
Kv2.1 mutants were constructed using the QuickChange Multi Site-Directed Mutagenesis Kit (Stratagene, La Jolla, Calif.). […] For oocyte expression, Kv3.4 was in pBF1, Kv4.2 was in pRAT. cRNA transcripts were produced from SacII-linearized (Kv2.1), Mlullinearized (Kv3.4) and Not1-linearized (Kv4.2) DNA templates using the T3 (Kv2.1), SP6 (Kv3.4) and T7 (Kv4.2) mMessage mMachine kits (Ambion, Austin, Tex.). cRNA was quantified by spectrophotometry and its size integrity verified by gel electophoresis.

Kv3.4 = biological target: T2, Kv3.4 (UniProt Q63734); assay: TEVC of X. laevis oocytes expressing Kv3.4; type: cell-based; conditions: 1 mM, bath applied
T2 construct: IC50; other: Kv3.4, logistic dose response fit; effect on Kv3.4 currents; other: 1 mM, bath applied; slope of dose response curve; other: Kv3.4
T2 sequence (Q63734 1-625): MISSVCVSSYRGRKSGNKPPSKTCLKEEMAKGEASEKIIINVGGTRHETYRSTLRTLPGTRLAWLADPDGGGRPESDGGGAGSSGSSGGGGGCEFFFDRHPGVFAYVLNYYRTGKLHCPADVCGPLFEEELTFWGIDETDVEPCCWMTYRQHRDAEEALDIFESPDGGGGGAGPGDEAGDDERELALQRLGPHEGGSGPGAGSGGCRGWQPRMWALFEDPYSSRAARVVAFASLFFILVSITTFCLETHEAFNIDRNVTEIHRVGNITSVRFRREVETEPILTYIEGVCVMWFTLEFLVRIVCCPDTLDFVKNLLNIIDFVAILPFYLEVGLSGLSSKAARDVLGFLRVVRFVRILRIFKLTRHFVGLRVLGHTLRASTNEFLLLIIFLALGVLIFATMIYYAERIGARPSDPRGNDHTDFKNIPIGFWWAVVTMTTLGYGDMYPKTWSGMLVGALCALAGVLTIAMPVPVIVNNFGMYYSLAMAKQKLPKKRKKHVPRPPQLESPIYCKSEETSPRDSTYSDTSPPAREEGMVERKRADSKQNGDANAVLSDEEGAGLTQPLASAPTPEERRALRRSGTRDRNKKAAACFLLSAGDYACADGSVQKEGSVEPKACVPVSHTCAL
Excerpt: Kv2.1 mutants were constructed using the QuickChange Multi Site-Directed Mutagenesis Kit (Stratagene, La Jolla, Calif.). […] For oocyte expression, Kv3.4 was in pBF1, Kv4.2 was in pRAT. cRNA transcripts were produced from SacII-linearized (Kv2.1), Mlullinearized (Kv3.4) and Not1-linearized (Kv4.2) DNA templates using the T3 (Kv2.1), SP6 (Kv3.4) and T7 (Kv4.2) mMessage mMachine kits (Ambion, Austin, Tex.). cRNA was quantified by spectrophotometry and its size integrity verified by gel electophoresis. Defolliculated stage V and VI Xenopus laevis oocytes (purchased from Nasco, Grand Island, N.Y.) were injected with 5 ng of cRNA encoding Kv2.1, Kv3.4 or Kv4.2. Chinese Hamster Ovary (CHO) cells were transfected with 0.25 μg Kv2.1 cDNA, 2 μg blank plasmid and 2 μg Green fluorescent Protein in pBOB using Supetfect transfection reagent (Qiagen) 24 hours before whole-cell voltage clamp studies.
Oocytes were bathed in a small-volume Warner oocyte bath and viewed with a Fisher dissection microscope. Bath solution for whole-cell oocyte recordings was (in mM): 96 NaCl, 4 KCl, 0.7 MgCl2, 1 CaCl2, 10 HEPES (pH 7.4); whole-cell oocyte TEVC pipettes were of 0.2-2 M resistance when filled with 3 M KCl. Experiments were performed 24-48 hours after cRNA injection. For assessment of current-voltage relationships in the absence or presence of dabco derivatives, oocytes were held at −80 mV, stepped for 2 seconds at voltages between −80 mV and +60 mV in 20 mV steps (Kv2.1) or between −80 and +50 mV in 10 mV steps (Kv3.4), then held for 500 ms at −40 mV before returning to the holding potential. For assessment of block during wash-in of dabco derivatives at a single voltage, oocytes were held at −80 mV, and repetitively stepped to 0 mV for 2 s with an interpulse interval of 10 s or 60 s as indicated. A range of concentrations of dabco or dabco derivatives were washed in via the bath solution during repetitive single-voltage pulses (after an initial period of 5 pulses with control solution to ensure current stabilization) until equilibrium block was achieved, to establish dose-responses. […] Washout was performed after the highest concentration of blocker was washed in. In cases where washout was achieved, only those recordings in which current returned to within 10% of original current level were used for construction of dose-response curves. […] As controls for this protection analysis, JC638.2a or MTSET were washed in alone until equilibrium block, then washed out.
Data analysis: Current-voltage relationships were obtained by measuring peak current during depolarizing pulses. Inhibition constants for DABCO blockers were calculated after generating a dose response curve by fitting with a logistic dose-response function y=A2+[A1−A2/1+(x/x0)^p], where A1 is the maximum response plateau, A2 is the minimum response plateau, x is drug concentrator, x0 is the IC50, and p the Hill slope. Data analysis was performed using […] 9 (Axon Instruments, Foster City, Calif.) and tabulated in Excel 5.0. Graphs were generated using Origin 6.1. Data are expressed as mean±SEM, with n specifying the number of independent experiments. Statistical significance was assessed by one-way ANOVA with p<0.05 being indicative of significance.

T1 sequence (P15387 whole entry): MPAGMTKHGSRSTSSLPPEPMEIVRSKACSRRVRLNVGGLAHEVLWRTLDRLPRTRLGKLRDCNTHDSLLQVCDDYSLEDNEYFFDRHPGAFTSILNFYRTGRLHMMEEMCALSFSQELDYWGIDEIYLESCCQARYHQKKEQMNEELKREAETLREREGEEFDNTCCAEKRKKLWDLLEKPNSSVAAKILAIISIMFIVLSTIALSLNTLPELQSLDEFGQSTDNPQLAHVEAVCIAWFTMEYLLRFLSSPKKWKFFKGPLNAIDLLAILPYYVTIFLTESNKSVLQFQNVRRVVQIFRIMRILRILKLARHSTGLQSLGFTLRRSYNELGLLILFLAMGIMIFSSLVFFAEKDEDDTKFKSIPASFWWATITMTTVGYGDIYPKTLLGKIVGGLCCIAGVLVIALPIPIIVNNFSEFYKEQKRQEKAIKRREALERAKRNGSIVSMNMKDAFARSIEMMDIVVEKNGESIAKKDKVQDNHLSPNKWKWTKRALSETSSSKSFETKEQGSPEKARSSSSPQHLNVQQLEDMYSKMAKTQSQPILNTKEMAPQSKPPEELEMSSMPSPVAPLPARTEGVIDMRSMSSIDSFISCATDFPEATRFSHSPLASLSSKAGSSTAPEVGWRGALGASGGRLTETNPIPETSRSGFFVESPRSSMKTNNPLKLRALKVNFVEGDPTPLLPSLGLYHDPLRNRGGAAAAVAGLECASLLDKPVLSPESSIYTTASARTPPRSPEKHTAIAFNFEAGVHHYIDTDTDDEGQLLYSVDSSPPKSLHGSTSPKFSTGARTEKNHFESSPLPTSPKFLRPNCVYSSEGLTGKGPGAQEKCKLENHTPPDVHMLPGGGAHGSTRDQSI

| Structure (SMILES) | effect on Kv2.1 currents (Kv2.1) | effect on Kv3.4 currents (Kv3.4) | effect on Kv2.1 current during wash-in (Kv2.1; 250 μM TG28, 0 mV) | Kv2.1 current level after washout relative to pre-drug current (Kv2.1; 250 μM TG28 washed out, on average) |
| --- | --- | --- | --- | --- |
| C1CN2CCN1CC2 [DABCO, 1,4-diazabicyclo[2.2.2]octane, reference compound] | no effects | no effects |  |  |
| C(CCCCCC[N+]12CCN(CC1)CC2)CCCCC[N+]12CCN(CC1)CC2 [TG28, 1,12-[bis(4-aza-1-azoniabicyclo[2.2.2]octanyl)]dodecane] | block |  | rapid reduction of current (block) followed by slow, partial restoration of current (partial opening) | two-fold larger than the pre-drug current |

Reference: patent US8143254B2, “Methods for modulating ion channels” (Cornell Research Foundation, Inc., priority 2005, dated 2012)
